Measurements from PMC12116762, “Topobexin targets the Topoisomerase II ATPase domain for beta isoform-selective inhibition and anthracycline cardioprotection” (Nature Communications, 2025).
“And” between values parts separate entries of the source, which are not always exact repeats. Identical values can stand only once.

What was measured:
[1] = biological target: T1, recombinant human TOP2B (Homo sapiens, UniProt Q02880); test: DNA decatenation assay, recombinant TOP2B; assay type: biochemical; details: for Normalized % TOP2B activity, decatenation: independent replicates
T1 construct: Using recombinant full-length human TOP2A and TOP2B enzymes; YFP (N, cleaved yes); made in house; host or cells: HEK293F
T1 sequence (Q02880 1-1621 isoform Q02880-2): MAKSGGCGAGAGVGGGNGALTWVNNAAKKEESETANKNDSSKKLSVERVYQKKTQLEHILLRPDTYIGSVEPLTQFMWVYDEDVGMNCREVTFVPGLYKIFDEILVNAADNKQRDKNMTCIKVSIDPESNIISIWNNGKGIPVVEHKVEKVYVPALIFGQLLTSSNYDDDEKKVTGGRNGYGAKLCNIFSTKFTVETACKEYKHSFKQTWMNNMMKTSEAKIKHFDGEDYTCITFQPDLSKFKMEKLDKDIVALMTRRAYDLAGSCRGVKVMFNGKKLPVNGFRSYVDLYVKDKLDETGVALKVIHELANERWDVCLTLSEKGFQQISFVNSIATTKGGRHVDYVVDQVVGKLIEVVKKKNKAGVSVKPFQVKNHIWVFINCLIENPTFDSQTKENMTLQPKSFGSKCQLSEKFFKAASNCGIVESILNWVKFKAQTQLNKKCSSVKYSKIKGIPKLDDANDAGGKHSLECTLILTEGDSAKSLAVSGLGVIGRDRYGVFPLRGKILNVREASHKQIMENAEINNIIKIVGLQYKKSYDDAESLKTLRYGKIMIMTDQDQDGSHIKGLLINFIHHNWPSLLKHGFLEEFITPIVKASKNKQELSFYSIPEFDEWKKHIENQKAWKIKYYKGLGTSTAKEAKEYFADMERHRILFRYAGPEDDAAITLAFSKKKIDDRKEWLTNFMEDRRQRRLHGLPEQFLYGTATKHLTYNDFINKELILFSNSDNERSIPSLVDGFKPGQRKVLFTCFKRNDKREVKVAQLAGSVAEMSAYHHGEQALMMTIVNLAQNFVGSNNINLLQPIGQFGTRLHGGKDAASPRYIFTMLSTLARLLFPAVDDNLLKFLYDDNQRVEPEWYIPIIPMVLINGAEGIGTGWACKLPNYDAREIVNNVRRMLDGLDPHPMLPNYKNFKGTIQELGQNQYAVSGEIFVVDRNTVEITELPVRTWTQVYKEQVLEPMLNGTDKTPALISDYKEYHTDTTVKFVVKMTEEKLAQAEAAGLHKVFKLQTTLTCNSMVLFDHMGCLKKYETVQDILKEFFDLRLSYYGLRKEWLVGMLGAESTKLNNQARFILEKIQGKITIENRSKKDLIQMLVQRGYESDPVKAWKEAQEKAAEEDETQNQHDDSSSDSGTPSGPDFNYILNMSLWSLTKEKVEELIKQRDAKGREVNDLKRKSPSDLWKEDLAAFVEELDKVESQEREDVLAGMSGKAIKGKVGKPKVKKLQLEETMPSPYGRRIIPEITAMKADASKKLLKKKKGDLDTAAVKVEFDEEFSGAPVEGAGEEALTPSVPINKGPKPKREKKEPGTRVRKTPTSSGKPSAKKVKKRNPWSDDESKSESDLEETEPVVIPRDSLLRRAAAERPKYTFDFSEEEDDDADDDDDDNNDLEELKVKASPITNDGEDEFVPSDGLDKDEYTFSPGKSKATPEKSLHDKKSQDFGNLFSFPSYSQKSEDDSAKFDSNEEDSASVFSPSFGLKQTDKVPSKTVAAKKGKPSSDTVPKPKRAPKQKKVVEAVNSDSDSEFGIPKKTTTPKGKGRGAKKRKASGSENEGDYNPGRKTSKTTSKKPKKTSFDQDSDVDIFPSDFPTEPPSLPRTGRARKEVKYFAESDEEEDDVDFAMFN
Experimental: The human topoisomerase II decatenation assay was performed to determine the inhibitory effects of BNS-22 and new compounds as previously described with minor modifications[14],[36]. The assay was performed using recombinant human TOP2A or TOP2B generated using the HEK293F YFP-tag expression system as previously described[18],[19],[36]. Briefly, plasmids encoding YFP-TOP2A or YFP-TOP2B were transfected into HEK293F cells (Catalog number 11625019, Thermofisher Scientific), and TOP2 proteins were isolated from cell lysates by anti-YFP nanobody affinity chromatography. After elution by TEV protease cleavage, TOP2 proteins were FPLC purified by sequential cation exchange and size exclusion chromatography. Plasmid encoding TOP2B C88Y was generated by round-the-horn PCR mutagenesis and the sequence was verified by full-plasmid sequencing. Purified TOP2 proteins were stored in a storage buffer containing 20 mM HEPES pH 7.5, 500 mM NaCl, 0.5 mM TCEP, 25% (v/v) glycerol at -80 °C. For decatenation assays, purified TOP2 proteins were incubated with 200 ng kDNA (Topogen) in a reaction buffer containing 50 mM Tris−HCl (pH 8), 100 mM NaCl, 10 mM MgCl2, 0.5 mM DTT, 2 mM ATP, 0.1 mM tris(2-carboxyethyl)phosphine (TCEP), 5% (v/v) glycerol, 70 μg/mL bovine serum albumin, and 1/10 volume of each compound diluted in 10% DMSO (final DMSO concentration 1%) for 40 min at 37 °C. The reaction was then stopped by the addition of gel loading buffer (0.5 volumes of 60% (w/v) glycerol, 60 mM EDTA, 20 mM Tris−HCl (pH 7.5), 0.5 mg/mL bromophenol blue) and the samples were placed on ice. Reaction products were resolved by agarose gel electrophoresis in TBE buffer containing GelRed stain (Biotium). Gels were visualized using an iBright CL1000 (Thermofisher Scientific). Band intensities were quantified using FIJI, and the signal of the treated samples was normalized to the value of the control (untreated sample; 100%) present on the same gel. The normalized signal of three independent measurements was then expressed as mean ± SD. Each presented data point was obtained from distinct sample. Normalized values were plotted as a function of inhibitor concentration to determine IC50 values by nonlinear regression with variable slope using Prism 9 (GraphPad).

[2] = tested on: neonatal rat ventricular cardiomyocytes (NVCM); test: Protection against DAU-induced cytotoxicity (LDH release) in NVCM; assay type: cell-based; parameters: key to Suppl.Fig.3 DAU-induced cytotoxicity (LDH release) in NVCM, mean of independent replicates / LDH release (DAU-induced cytotoxicity), mean of independent replicates: % of total LDH activity; details: for LDH release: independent replicates
Method in brief: (§1)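 Primary neonatal Wistar rat cardiomyocytes in serum- and pyruvate-free DMEM/F12 were pretreated with compound 3 h, then co-incubated 3 h with DAU (1.2 µM), or without DAU for inherent toxicity, then given a 48 h drug-free follow-up. Medium LDH activity (NAD+ reduction at 340 nm) expressed as % of total LDH.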

[3] = tested on: neonatal rat ventricular cardiomyocytes (NVCM); test: Inherent toxicity (LDH release) in NVCM; assay type: cell-based; parameters: key to LDH release (inherent toxicity), mean of independent replicates: % of total LDH activity; details: NVCM; for LDH release (inherent toxicity), mean of independent replicates: Suppl.Fig.4
Method in brief: as §1

CCCc1cc(=O)oc2c(C(=O)N3CCCc4ccccc43)c(OC)cc(OC)c12 [BNS-22]
Normalized % TOP2B activity, decatenation ([1]; 0.029 μM): 110.4% and 102.5% and 86.14% | Normalized % TOP2B activity, decatenation ([1]; 0.059 μM): 117.4% and 95.62% and 85.84% | Normalized % TOP2B activity, decatenation ([1]; 0.117 μM): 120.4% and 94.08% and 92.01% | Normalized % TOP2B activity, decatenation ([1]; 0.234 μM): 93.24% and 96.15% and 88.28% | Normalized % TOP2B activity, decatenation ([1]; 0.469 μM): 119.4% and 102% and 86.29% | Normalized % TOP2B activity, decatenation ([1]; 0.938 μM): 128.5% and 90.51% and 82.07% | Normalized % TOP2B activity, decatenation ([1]; 1.875 μM): 113% and 60.36% and 75.6% | Normalized % TOP2B activity, decatenation ([1]; 3.750 μM): 78.05% and 36.23% and 45.78% | Normalized % TOP2B activity, decatenation ([1]; 7.500 μM): 36.99% and 17.69% and 24.26% | Normalized % TOP2B activity, decatenation ([1]; 15.000 μM): 19.21% and 12.13% and 18.98% | Normalized % TOP2B activity, decatenation ([1]; 30.000 μM): 18.37% and 9.163% and 14.61% | SRbeta (SRTOP2B), decatenation activity ([1]; TOP2A IC50 divided by TOP2B IC50): 1.6 | IC50 ([1]; enzyme expressed in HEK293F, n=3): 4 µM | minimal effective concentration ([2]; NVCM, protection against DAU 1.2 µM, n=4, read-out: LEC = lowest effective concentration): 1 µM | LDH release, mean ([2]; compound 0.01 µM + DAU 1.2 µM): 38.9374 % of total LDH | Suppl.Fig.3 DAU-induced cytotoxicity (LDH release) in NVCM, mean of independent replicates ([2]; compound 0.01 µM + DAU 1.2 µM): 38.9374 | LDH release ([2]; compound 0.01 µM + DAU 1.2 µM): 36.8796 % of total LDH and 42.975 % of total LDH and 39.3894 % of total LDH and 36.5057 % of total LDH | LDH release, mean ([2]; compound 0.1 µM + DAU 1.2 µM): 33.1153 % of total LDH | Suppl.Fig.3 DAU-induced cytotoxicity (LDH release) in NVCM, mean of independent replicates ([2]; compound 0.1 µM + DAU 1.2 µM): 33.1153 | LDH release ([2]; compound 0.1 µM + DAU 1.2 µM): 30.1987 % of total LDH and 38.5314 % of total LDH and 34.1236 % of total LDH and 29.6074 % of total LDH | LDH release, mean ([2]; compound 1 µM + DAU 1.2 µM): 28.1702 % of total LDH | Suppl.Fig.3 DAU-induced cytotoxicity (LDH release) in NVCM, mean of independent replicates ([2]; compound 1 µM + DAU 1.2 µM): 28.1702 | LDH release ([2]; compound 1 µM + DAU 1.2 µM): 24.6443 % of total LDH and 29.0885 % of total LDH and 32.0729 % of total LDH and 26.875 % of total LDH | LDH release, mean ([2]; compound 3 µM + DAU 1.2 µM): 24.9748 % of total LDH | Suppl.Fig.3 DAU-induced cytotoxicity (LDH release) in NVCM, mean of independent replicates ([2]; compound 3 µM + DAU 1.2 µM): 24.9748 | LDH release ([2]; compound 3 µM + DAU 1.2 µM): 26.7887 % of total LDH and 18.8271 % of total LDH and 27.1872 % of total LDH and 27.096 % of total LDH | LDH release, mean ([2]; compound 10 µM + DAU 1.2 µM): 23.9768 % of total LDH | Suppl.Fig.3 DAU-induced cytotoxicity (LDH release) in NVCM, mean of independent replicates ([2]; compound 10 µM + DAU 1.2 µM): 23.9768 | LDH release ([2]; compound 10 µM + DAU 1.2 µM): 25.2929 % of total LDH and 19.0756 % of total LDH and 25.4172 % of total LDH and 26.1213 % of total LDH | LTC = lowest toxic concentration ([3]; compound alone, n=4): > 10 µM | LDH release (inherent toxicity), mean of independent replicates ([3]; compound alone 0.01 µM): 12.6739 | LDH release (inherent toxicity), mean of independent replicates ([3]; compound alone 0.1 µM): 12.9938 | LDH release (inherent toxicity), mean of independent replicates ([3]; compound alone 1 µM): 12.9269 | LDH release (inherent toxicity), mean of independent replicates ([3]; compound alone 3 µM): 14.5033 | LDH release (inherent toxicity), mean of independent replicates ([3]; compound alone 10 µM): 16.9772
